Laboratory results taken from patent US5395836A, “8-tricycloalkyl xanthine derivatives” (Kyowa Hakko Kogyo Co., Ltd., priority 1993, dated 1995).

Tests used:
[1] = Activity on (R)-PIA-Induced Amnesia (step-through passive avoidance); type: in vivo, mouse (ddY-strain); conditions: oral, amnesia treatment +, n = 15, amnesia control 51.5 ± 17.0
Experimental: Anti-dementia effect of Compound (I) was determined with (R)-PIA[(R)-N^6 -(2-phenylisopropyl)adenosine]-induced dementia model [Jpn. J. Pharmacol. 52 (Suppl. II), 107P (1990)] As the experimental animal, groups of ddY-strain mice (weighing 20-25 g), each group consisting of fifteen mice, were used. The test was performed with a step-through type passive avoidance apparatus (the bright and dark box).
The bright and dark box was made up of a bright compartment (15×9×11 cm) lighted by 4 W white fluorescent light and a dark compartment (15×14×18 cm). […] In order to give a foot shock, the electric current (0.3 mA: 2 sec) may be passed through the grid floor of the dark compartment.
The compound to be tested was suspended in 0.3% aqueous solution of carboxymethyl cellulose (CMC) and the suspension was orally administered 60 minutes before the acquisition trial (to the normal control group and the amnesia control group which is subjected to the following amnesia treatment, only 0.3% CMC was administered). 30 minutes after the administration of the test compound, 0.3 mg/kg of (R)-PIA was administered intraperitoneally as amnesia-inducing treatment [(R)-PIA was not administered to the normal control group].
The training for acquisition of learning (acquisition trial) was carried out. The rat was introduced into the bright compartment, and after 10 seconds, the guillotine door was opened. The rat in the bright compartment rapidly moved into the dark compartment. As soon as the whole body of the rat entered the dark compartment, the guillotine door was closed and an electric current of 0.3 mA was passed through the grid floor for 2 seconds (foot shock). Immediately after the foot shock, the rat was taken out of the dark compartment.
The test trial for observing the retention and recall of the memory (recall trial) was carried out as follows. Twenty-four hours after the acquisition trial, the rat was placed in the bright compartment and the guillotine door was opened. The length of time before the rat entered the dark compartment (latency) was measured. The latency was measured up to 600 seconds and the latency longer than 600 seconds was recorded as 600 seconds.
The test of significance was carried out by Steel-test.

[2] = Renal-protecting Effect (Glycerol-Induced Renal Failure Model); type: in vivo, rat (Wistar); conditions: ip, 24 h after glycerol; for Amount of creatinine in blood serum: 4.35 ± 0.23 (compound 3); for Amount of uria nitrogen in blood serum: 139.7 ± 10.2 (compound 3)
Experimental: A renal failure is a state where the renal function is lowered and the homeostasis of a body fluid can be no longer maintained. It is known that an acute renal failure characteristic of uriniferous tubule disorder is caused by subcutaneous or intramuscular injection of glycerol to rats [Can. J. Physiol.
Male Wistar rats were kept deprived of water for 18 hours, and served for the test. A test compound was intraperitoneally administered to the rats (dosage: 0.1 ml/100 g). After 30 minutes, the rats were anesthetized with ether and 50% glycerol was subcutaneously administered (dosage: 0.8 ml/100 g) to the rats, pinching the dorsal skin. Twenty four hours after the administration of glycerol, the rats were anesthetized with ether and 5 ml of blood was collected from the abdominal aorta. The collected blood was allowed to stand for 30 minutes or longer and then centrifuged at 3,000 rpm for 10 minutes, and the amounts of the serum creatinine and the serum urine-nitrogen (UN) were determined by auto analyzer (Olympus AU510) [creatinine test (Jaffe method), UN test (enzyme method); both tests were used in Olympus AU500/550 exclusive reagent […].

Diuretic Effect = type: in vivo, rat (Wistar); conditions: for Increase in amount of K+ excreted Δ(%) / Increase in amount of Na+ excreted Δ(%) / Increase in amount of urine Δ(%): control 0
Experimental: The experiment was performed by using Wistar rats (male; 150 to 300 g). The rats were starved for 18 hours prior to the administration of a test compound (n=4 to 5). After test compounds were dissolved in 0.4% methanol, 1% dimethylsulfoxide and 0.01N sodium hydroxide/physiological saline, and administered intravenously, the physiological saline (25 ml/kg) was orally administered. Alternatively, test compounds dissolved in the physiological saline (25 ml/kg) was orally administered to the rats. Urine was collected from the rats during 4 hours after the oral administration, and urine volume was measured by a graduated measuring cylinder, and the electrolytes in the urine (Na^+ and K^+) were determined by flame photometer (775 A manufactured by Hitachi, Ltd.).

adenosine A1 receptor = biological target: T1, adenosine A1 receptor (Rattus norvegicus, UniProt P25099); experiment: Adenosine Receptor Antagonizing Activity (Adenosine A1 Receptor Binding Test); conditions: rat corpus striatum; 3H-CHA 1.1 nM; 25° C., 90 min; Cheng-Prusoff
T1 construct: from tissue; host or cells: rat corpus striatum, washed membrane suspension
T1 sequence (P25099 1-326): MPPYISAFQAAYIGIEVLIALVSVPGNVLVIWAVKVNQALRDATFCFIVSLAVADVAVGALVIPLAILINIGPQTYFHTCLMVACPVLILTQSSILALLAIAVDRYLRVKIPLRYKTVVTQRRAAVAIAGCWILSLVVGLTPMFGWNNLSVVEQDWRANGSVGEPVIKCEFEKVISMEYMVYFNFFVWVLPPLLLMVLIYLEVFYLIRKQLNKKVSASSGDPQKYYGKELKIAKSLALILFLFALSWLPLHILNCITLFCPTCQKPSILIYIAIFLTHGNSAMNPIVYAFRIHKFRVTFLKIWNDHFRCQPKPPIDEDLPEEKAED
Experimental: The test was conducted according to the method of Bruns et al. [Proc. Natl. Acad. Sci. U.S.A., 77., 5547 (1980)] with slight modification.
Corpus striatum of a rat was suspended in ice-cooled 50 mM Tris hydroxymethyl aminomethane hydrochloride (Tris HCl) buffer (pH 7.7) by using Polytron homogenizer (manufactured by Kinematicas Co.). The suspension was centrifuged (50,000×g, 10 minutes), and the precipitate was suspended again in the same amount of 50 mM Tris HCl buffer. The suspension was centrifuged under the same conditions, and the final precipitate was suspended once again in 50 mM Tris HCl buffer to give a tissue concentration of 100 mg (wet weight)/ml. The tissue suspension was allowed to stand in the presence of 0.02 unit/mg tissue of adenosine deaminase (manufacture by Sigma Co.) at 37° C. for 30 minutes. The tissue suspension was centrifuged (50,000×g, 10 minutes) and to the obtained precipitates was added 50 mM Tris HCl buffer to give a tissue concentration of 10 mg (wet weight)/ml.
To 1 ml of the tissue suspension thus prepared, were added 50 μl of cyclohexyladenosine labeled with tritium (^3 H-CHA: 27 Ci/mmol, manufactured by New England Nuclear) (final concentration: 1.1 nM), and 50 μl of a test compound. The resulting mixture was allowed to stand at 25° C. for 90 minutes and then rapidly filtered by suction through a glass fiber filter (GF/C, manufactured by Whatman Co.). The filter was immediately washed three times with 5 ml each of ice-cooled 50 mM Tris HCl buffer, and transferred to a vial, and scintillator (EX-H by Wako Pure Chemical Industries, Ltd.) was added thereto. The radioactivity on the filter was determined with a liquid scintillation counter (manufactured by Packard Instrument Co.).
The inhibition rate (Ki value) of the test compound against the binding of A1 receptors (^3 H-CHA binding) was calculated by the equation of Cheng-Prusoff. [formula]

Ki (adenosine A1 receptor): 0.23 nM
SMILES: CCCn1c(=O)c2[nH]c(C34C[C@H]5CC3C[C@@H](C4)[C@@H]5O)nc2n(CCC)c1=O (relative stereo) [Compound 3, 8-(Trans-9-hydroxy-3-tricyclo[3.3.1.0^3,7]nonyl)-1,3-dipropylxanthine]
Recall trial average reaction latency ([1]; 0.08 mg/kg): 404.3 ± 43.5 s
Recall trial average reaction latency ([1]; 0.31 mg/kg): 438.8 ± 43.0 s
Recall trial average reaction latency ([1]; 1.25 mg/kg): 445.5 ± 49.5 s
Recall trial average reaction latency ([1]; 5.0 mg/kg): 430.5 ± 43.2 s
Amount of creatinine in blood serum ([2]; 0.01 mg/kg, control 3.90 ± 0.24 (compounds 6, 7)): 2.00 ± 0.21 mg/dL
Amount of uria nitrogen in blood serum ([2]; 0.01 mg/kg, control 124.9 ± 7.5 (compounds 6, 7)): 69.9 ± 8.4 mg/dL
Amount of creatinine in blood serum ([2]; 0.1 mg/kg, control 4.55 ± 0.24 (compound 5)): 2.32 ± 0.16 mg/dL
Amount of uria nitrogen in blood serum ([2]; 0.1 mg/kg, control 137.2 ± 5.0 (compound 5)): 64.4 ± 4.5 mg/dL
Amount of K+ excreted (Diuretic Effect; iv, 3 μg/kg, n = 5, 4 hours, control 1.47 ± 0.31): 1.24 ± 0.10 mEq/kg
Na+/K+ (Diuretic Effect; iv, 3 μg/kg, n = 5, 4 hours, control 1.52): 2.99
Amount of Na+ excreted (Diuretic Effect; iv, 3 μg/kg, n = 5, 4 hours, control 2.23 ± 0.61): 3.71 mEq/kg
Amount of urine (Diuretic Effect; iv, 3 μg/kg, n = 5, urine over 4 hours, control 14.5 ± 1.8): 26.4 mL/kg
Increase in amount of K+ excreted Δ(%) (Diuretic Effect; po, 0.01 mg/kg, 4 hours): 11%
Increase in amount of Na+ excreted Δ(%) (Diuretic Effect; po, 0.01 mg/kg, 4 hours): 139%
Increase in amount of urine Δ(%) (Diuretic Effect; po, 0.01 mg/kg, 4 hours): 99%
Na+/K+ (Diuretic Effect; po, 0.01 mg/kg, 4 hours, control 1.00): 2.16
Increase in amount of K+ excreted Δ(%) (Diuretic Effect; po, 0.1 mg/kg, 4 hours): -9%
Increase in amount of Na+ excreted Δ(%) (Diuretic Effect; po, 0.1 mg/kg, 4 hours): 148%
Increase in amount of urine Δ(%) (Diuretic Effect; po, 0.1 mg/kg, 4 hours): 105%
Na+/K+ (Diuretic Effect; po, 0.1 mg/kg, 4 hours, control 1.00): 2.72
